Settings: 298.15 K

O=C(O)c1ccc(Cl)c(Cl)c1
Settings	solubility (mole fraction)
in 1,4-dioxane	0.0493
in 2-butoxyethanol	0.0399
in 2-ethoxyethanol	0.0445
in 2-isopropoxyethanol	0.0483
in 2-methyl-1-butanol	0.0183
in 2-methyl-1-pentanol	0.0239
in 2-pentanol	0.0248
in 2-propoxyethanol	0.0468
in 3-methoxy-1-butanol	0.0503
in 4-methyl-2-pentanol	0.0255
in MTBE	0.0358
in THF	0.101
in dibutyl ether	0.00969
in diethyl ether	0.0308
in diisopropyl ether	0.0126
in ethanol	0.0173
in ethyl acetate	0.0164
in isobutanol	0.0139
in isopentanol	0.0216
in isopropanol	0.0177
in methyl acetate	0.0119
in methyl butyrate	0.0143
in n-butanol	0.0203
in n-butyl acetate	0.0206
in n-heptanol	0.0251
in n-hexanol	0.0238
in n-octanol	0.0242
in n-pentanol	0.0218
in n-pentyl acetate	0.0216
in n-propanol	0.0185
in n-propyl acetate	0.0176
in sec-butanol	0.019
in tert-butanol	0.0345
